# Assays:
# [1] = DRUGMATRIX: Phorbol Ester radioligand binding (ligand: [3H] PDBu); format: cell membranes, Mus musculus, ICR, Brain, Membrane; details: Not Active = under 50% inhibition at 10 µM
# [2] = biological target: T1, Caspase-1 (Homo sapiens, UniProt P29466); design: species or system Escherichia coli;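 further: Caspase-1 enzyme inhibition assay with a peptide substrate; in other assays of this panel Not Active means under 50% inhibition at 10 µM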
# T1 sequence (P29466 whole entry): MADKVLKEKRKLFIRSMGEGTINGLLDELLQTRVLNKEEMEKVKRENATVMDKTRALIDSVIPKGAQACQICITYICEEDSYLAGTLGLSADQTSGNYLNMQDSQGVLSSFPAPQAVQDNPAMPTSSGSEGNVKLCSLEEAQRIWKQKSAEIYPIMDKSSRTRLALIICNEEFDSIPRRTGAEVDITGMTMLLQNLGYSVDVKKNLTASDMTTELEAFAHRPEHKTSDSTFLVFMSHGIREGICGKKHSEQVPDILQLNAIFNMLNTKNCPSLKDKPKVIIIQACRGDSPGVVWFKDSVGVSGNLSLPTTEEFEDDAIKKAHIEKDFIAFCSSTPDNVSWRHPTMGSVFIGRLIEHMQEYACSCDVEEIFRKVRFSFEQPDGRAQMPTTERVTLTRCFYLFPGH
# [3] = biological target: Cytochrome P450 2C9 (Homo sapiens, UniProt P11712); details: bti-tn-5b1-4; further: in other assays of this panel Not Active means under 50% inhibition at 10 µM
# Chain of Cytochrome P450 2C9 (P11712 whole entry): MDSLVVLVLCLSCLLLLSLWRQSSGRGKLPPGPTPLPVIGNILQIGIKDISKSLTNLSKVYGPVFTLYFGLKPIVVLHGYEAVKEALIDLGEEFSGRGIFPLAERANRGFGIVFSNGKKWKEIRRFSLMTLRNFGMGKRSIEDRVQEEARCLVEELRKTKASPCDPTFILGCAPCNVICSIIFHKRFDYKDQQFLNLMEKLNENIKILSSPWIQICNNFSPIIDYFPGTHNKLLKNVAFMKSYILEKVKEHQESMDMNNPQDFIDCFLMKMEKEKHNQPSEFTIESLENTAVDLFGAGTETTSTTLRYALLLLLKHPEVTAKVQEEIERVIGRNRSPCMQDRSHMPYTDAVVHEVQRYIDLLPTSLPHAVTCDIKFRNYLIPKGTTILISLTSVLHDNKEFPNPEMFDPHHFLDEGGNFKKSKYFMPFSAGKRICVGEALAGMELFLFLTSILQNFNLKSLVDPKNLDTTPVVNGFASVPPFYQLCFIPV
# [4] = biological target: T2, Calcitonin receptor (Homo sapiens, UniProt P30988); format: cell membranes, Membrane; details: t47d; further: in other assays of this panel Not Active means under 50% inhibition at 10 µM
# T2 sequence (P30988 whole entry): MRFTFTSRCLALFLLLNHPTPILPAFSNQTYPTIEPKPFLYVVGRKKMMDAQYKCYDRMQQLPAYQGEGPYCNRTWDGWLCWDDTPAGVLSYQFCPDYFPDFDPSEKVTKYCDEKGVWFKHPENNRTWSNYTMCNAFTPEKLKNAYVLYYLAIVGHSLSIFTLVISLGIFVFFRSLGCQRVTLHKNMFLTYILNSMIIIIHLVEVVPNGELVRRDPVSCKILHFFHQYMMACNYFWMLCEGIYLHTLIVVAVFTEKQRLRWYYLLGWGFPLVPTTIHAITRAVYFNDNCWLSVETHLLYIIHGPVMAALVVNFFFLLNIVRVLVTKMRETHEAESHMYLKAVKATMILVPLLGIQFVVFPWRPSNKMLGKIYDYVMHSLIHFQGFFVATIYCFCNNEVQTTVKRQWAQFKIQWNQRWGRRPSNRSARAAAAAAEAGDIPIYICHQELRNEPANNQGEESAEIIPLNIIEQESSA
# [5] = biological target: T3, Muscarinic acetylcholine receptor M5 (Homo sapiens, UniProt P08912); format: cell membranes, CHO-K1, Membrane; details: cho-k1; further: in other assays of this panel Not Active means under 50% inhibition at 10 µM
# T3 sequence (P08912 whole entry): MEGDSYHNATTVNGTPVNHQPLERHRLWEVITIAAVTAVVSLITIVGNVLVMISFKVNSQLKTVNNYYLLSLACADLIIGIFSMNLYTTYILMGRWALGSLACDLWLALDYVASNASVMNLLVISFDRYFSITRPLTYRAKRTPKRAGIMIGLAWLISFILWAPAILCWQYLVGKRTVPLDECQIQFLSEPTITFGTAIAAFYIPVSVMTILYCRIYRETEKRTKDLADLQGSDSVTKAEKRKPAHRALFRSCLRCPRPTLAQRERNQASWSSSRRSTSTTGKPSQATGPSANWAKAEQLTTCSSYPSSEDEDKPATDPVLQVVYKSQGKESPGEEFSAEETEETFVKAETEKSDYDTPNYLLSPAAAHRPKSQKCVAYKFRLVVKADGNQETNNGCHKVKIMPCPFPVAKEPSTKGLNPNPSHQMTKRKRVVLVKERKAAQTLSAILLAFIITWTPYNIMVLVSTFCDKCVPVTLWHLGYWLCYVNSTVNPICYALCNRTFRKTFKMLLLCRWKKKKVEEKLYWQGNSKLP
# [6] = biological target: Matrix metalloproteinase-9 (Homo sapiens, UniProt P14780); format: cell-based
# Chain of Matrix metalloproteinase-9 (P14780 whole entry): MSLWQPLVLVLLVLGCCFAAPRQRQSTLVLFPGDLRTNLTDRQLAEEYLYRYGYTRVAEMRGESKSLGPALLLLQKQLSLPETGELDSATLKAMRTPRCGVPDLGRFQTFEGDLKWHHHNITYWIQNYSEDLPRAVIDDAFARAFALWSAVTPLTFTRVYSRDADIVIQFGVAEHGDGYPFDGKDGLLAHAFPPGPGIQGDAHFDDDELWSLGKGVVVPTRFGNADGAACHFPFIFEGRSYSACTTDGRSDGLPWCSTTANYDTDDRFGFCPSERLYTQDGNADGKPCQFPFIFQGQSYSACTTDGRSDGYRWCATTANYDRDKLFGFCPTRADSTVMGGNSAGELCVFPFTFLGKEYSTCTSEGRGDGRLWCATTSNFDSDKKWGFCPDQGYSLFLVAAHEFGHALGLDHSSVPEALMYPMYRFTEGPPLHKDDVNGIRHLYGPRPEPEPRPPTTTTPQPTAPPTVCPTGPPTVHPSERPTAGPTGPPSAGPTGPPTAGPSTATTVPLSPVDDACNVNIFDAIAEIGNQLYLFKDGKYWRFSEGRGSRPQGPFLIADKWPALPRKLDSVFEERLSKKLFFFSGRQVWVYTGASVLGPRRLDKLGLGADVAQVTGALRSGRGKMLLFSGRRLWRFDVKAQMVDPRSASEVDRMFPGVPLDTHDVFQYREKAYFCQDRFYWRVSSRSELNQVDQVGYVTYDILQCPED
# [7] = DRUGMATRIX: ATPase, Na+/K+ enzyme inhibition (substrate: ATP); format: tissue-based, Sus scrofa, Heart; details: Not Active = under 50% inhibition at 10 µM
# [8] = DRUGMATRIX: Nicotinic Acetylcholine radioligand binding (ligand: [125I] Epibatidine); format: cell membranes, Membrane; details: imr-32; Not Active = under 50% inhibition at 10 µM
# [9] = DRUGMATRIX: GABAA, Flunitrazepam, Central radioligand binding (ligand: [3H] Flunitrazepam); format: cell membranes, Rattus norvegicus, Wistar, Brain, Membrane; details: Not Active = under 50% inhibition at 10 µM
# [10] = biological target: T4, Type-2 angiotensin II receptor (Homo sapiens, UniProt P50052); format: cell-based; details: cho-k1; further: in other assays of this panel Not Active means under 50% inhibition at 10 µM
# T4 sequence (P50052 whole entry): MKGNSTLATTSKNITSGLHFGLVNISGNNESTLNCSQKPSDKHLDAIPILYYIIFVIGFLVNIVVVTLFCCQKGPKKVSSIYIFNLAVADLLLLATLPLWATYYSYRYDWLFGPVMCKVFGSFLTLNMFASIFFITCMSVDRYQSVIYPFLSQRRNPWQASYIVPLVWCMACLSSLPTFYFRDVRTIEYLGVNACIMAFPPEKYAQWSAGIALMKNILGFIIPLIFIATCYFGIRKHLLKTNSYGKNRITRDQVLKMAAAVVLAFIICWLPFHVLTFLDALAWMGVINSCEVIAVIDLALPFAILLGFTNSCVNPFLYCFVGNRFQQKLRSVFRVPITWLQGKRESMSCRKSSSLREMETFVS
# [11] = biological target: Vascular endothelial growth factor receptor 1 (Homo sapiens, UniProt P17948); format: cell-based; details: huvec; further: in other assays of this panel Not Active means under 50% inhibition at 10 µM
# Chain of Vascular endothelial growth factor receptor 1 (P17948 whole entry): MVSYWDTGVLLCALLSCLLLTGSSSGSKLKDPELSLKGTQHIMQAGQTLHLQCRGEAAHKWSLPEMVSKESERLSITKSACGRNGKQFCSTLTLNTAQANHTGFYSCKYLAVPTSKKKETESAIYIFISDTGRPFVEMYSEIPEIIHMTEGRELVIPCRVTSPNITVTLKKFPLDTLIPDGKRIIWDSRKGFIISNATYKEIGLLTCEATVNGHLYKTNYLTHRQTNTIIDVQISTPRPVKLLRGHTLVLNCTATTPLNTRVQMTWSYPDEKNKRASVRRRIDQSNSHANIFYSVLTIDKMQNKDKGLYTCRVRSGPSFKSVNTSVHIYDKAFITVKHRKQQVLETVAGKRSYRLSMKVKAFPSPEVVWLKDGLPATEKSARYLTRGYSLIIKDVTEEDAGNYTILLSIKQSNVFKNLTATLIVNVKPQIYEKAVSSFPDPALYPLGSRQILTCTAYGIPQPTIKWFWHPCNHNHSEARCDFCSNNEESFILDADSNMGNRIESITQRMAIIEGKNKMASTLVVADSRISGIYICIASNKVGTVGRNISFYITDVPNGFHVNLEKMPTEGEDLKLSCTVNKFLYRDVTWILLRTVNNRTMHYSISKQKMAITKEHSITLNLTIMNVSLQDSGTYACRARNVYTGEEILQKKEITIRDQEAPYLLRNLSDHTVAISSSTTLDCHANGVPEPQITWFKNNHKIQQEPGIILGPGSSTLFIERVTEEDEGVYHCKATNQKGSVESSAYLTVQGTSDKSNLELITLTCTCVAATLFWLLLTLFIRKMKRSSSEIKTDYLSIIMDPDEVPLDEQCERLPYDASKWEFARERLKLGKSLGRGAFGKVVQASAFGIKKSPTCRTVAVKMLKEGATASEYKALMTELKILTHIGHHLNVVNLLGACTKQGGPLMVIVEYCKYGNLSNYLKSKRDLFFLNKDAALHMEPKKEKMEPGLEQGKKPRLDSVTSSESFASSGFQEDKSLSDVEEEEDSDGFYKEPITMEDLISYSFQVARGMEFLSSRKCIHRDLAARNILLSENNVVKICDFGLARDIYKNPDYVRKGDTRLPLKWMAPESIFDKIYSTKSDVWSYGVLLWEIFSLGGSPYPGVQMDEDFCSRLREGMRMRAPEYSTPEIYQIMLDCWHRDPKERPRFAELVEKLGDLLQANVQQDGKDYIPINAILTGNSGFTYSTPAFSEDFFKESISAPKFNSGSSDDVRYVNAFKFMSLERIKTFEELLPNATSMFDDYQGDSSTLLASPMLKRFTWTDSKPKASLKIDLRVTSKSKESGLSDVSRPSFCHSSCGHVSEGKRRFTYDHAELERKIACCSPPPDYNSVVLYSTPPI
Compound,IC50 [1],Ki [1],IC50 [2],IC50 [3],Ki [3],IC50 [4],IC50 [5],IC50 [6],IC50 [7],Ki [7],IC50 [8],Ki [8],IC50 [9],Ki [9],IC50 [10],IC50 [11],other results
CCCC[C@@H](CC)COC(=O)c1ccccc1C(=O)OC[C@@H](CC)CCCC [BIS(2-ETHYLHEXYL)PHTHALATE],Not Active,Not Active,Not Active,Not Active,Not Active,Not Active,Not Active,Not Active,Not Active,Not Active,Not Active,Not Active,Not Active,Not Active,Not Active,Not Active,–
GOLD SODIUM THIOMALATE,Not Active,Not Active,Not Active,Not Active,Not Active,Not Active,Not Active,Not Active,Not Active,Not Active,Not Active,Not Active,Not Active,Not Active,Not Active,Not Active,Ki [2]: Not Active; Ki [4]: Not Active; Ki [5]: Not Active; Ki [6]: Not Active; Ki [10]: Not Active; Ki [11]: Not Active
CISPLATIN,Not Active,Not Active,Not Active,Not Active,Not Active,Not Active,Not Active,Not Active,–,–,Not Active,Not Active,Not Active,Not Active,Not Active,Not Active,Ki [2]: Not Active; Ki [4]: Not Active; Ki [5]: Not Active; Ki [6]: Not Active; IC50 ([7]; read-out: IC50): 9.43 µM; Ki [10]: Not Active; Ki [11]: Not Active
CN1C[C@H](C(=O)N[C@]2(C)O[C@@]3(O)[C@@H]4CCCN4C(=O)[C@H](Cc4ccccc4)N3C2=O)C=C2c3cccc4[nH]cc(c34)C[C@H]21 [ERGOTAMINE],Not Active,Not Active,Not Active,Not Active,Not Active,Not Active,Not Active,Not Active,Not Active,Not Active,Not Active,Not Active,Not Active,Not Active,Not Active,Not Active,–
c1ccc2c(c1)cc1ccc3cccc4ccc2c1c34,Not Active,Not Active,Not Active,Not Active,Not Active,Not Active,Not Active,Not Active,Not Active,Not Active,Not Active,Not Active,Not Active,Not Active,Not Active,Not Active,–
CCCCCCCCCc1ccc(O)cc1 [4-NONYLPHENOL],Not Active,Not Active,Not Active,Not Active,Not Active,Not Active,–,Not Active,Not Active,Not Active,Not Active,Not Active,Not Active,Not Active,Not Active,Not Active,–
C=C1[C@@H]2CCC3[C@@](CC[C@@H]4[C@H](C(=O)O)C[C@@H](O[C@@H]5O[C@H](CO)[C@@H](OS(=O)(=O)[O-])[C@H](OS(=O)(=O)[O-])[C@H]5OC(=O)CC(C)C)C[C@@]34C)(C2)[C@@H]1O.[K+].[K+] (some centres undefined) [ATRACTYLOSIDE],Not Active,Not Active,Not Active,Not Active,Not Active,Not Active,Not Active,Not Active,Not Active,Not Active,Not Active,Not Active,Not Active,Not Active,Not Active,Not Active,–
N#C[C@H](O[C@@H]1O[C@H](CO[C@@H]2O[C@H](CO)[C@@H](O)[C@H](O)[C@H]2O)[C@@H](O)[C@H](O)[C@H]1O)c1ccccc1 [AMYGDALIN],Not Active,Not Active,Not Active,Not Active,Not Active,Not Active,Not Active,Not Active,Not Active,Not Active,Not Active,Not Active,Not Active,Not Active,Not Active,Not Active,–
C=C(C)[C@@H]1[C@H]2OC(=O)[C@@H]1[C@]1(O)C[C@H]3O[C@]34C(=O)O[C@H]2[C@]14C [PICROTOXININ],Not Active,Not Active,Not Active,Not Active,Not Active,Not Active,Not Active,Not Active,Not Active,Not Active,Not Active,Not Active,Not Active,Not Active,Not Active,Not Active,–
